Test results as given in ChEMBL document CHEMBL1141742, “A Novel Insect Antifeedant Nonprotein Amino Acid from Calotropis gigantea” (1998).
Activity calls are given as the source filed them. The calls are words filed in the database; no cut-off is given here.

Assays:
[1] = test system: Schistocerca gregaria; test: Antifeedant activity against 5th instar nymphs of Schistocerca gregaria assessed as feeding reduction at 1 ng/cm'2 by filter paper based feeding assay; format: functional, organism-based
[2] = test system: Schistocerca gregaria; test: Antifeedant activity against 5th instar nymphs of Schistocerca gregaria assessed as feeding reduction at 5 ug/cm'2 by maize leave choice feeding assay; format: functional; parameters: scale not given: the % may be the effect or the level left
[3] = test system: Schistocerca gregaria; test: Antifeedant activity against 5th instar nymphs of Schistocerca gregaria assessed as feeding reduction at 1.6 ug/cm'2 by maize leave choice feeding assay; format: functional; parameters: scale not given: the % may be the effect or the level left
[4] = test system: Schistocerca gregaria; test: Antifeedant activity against 5th instar nymphs of Schistocerca gregaria assessed as feeding reduction at 6.6 ug/cm'2 by maize leave choice feeding assay; format: functional; parameters: scale not given: the % may be the effect or the level left
[5] = test system: Schistocerca gregaria; test: Antifeedant activity against 5th instar nymphs of Schistocerca gregaria assessed as feeding reduction at 3.2 ug/cm'2 by maize leave choice feeding assay; format: functional; parameters: scale not given: the % may be the effect or the level left

SMILES	Activity [1]	Activity [2] [%]	Activity [3] [%]	Activity [4] [%]	Activity [5] [%]
C/C=C(\C)C(=O)O[C@H]1C[C@@H](OC(C)=O)[C@@]2(C(=O)OC)CO[C@H]3[C@@H](O)[C@@](C)([C@]45O[C@@]4(C)[C@@H]4C[C@H]5O[C@@H]5OC=C[C@@]54O)[C@H]4[C@]1(CO[C@]4(O)C(=O)OC)[C@@H]32	Active	–	–	–	–
CCOC(=O)Nc1ccc([C@H](NC(C)=O)C(=O)O)cc1 [GIGANTICINE]	–	80	55	90	68
